Assays:
[1] = test system: mouse COL1A2 promoter; assay: Decoy oligonucleotides in COL1A2/luciferase transgenic mice (FIG. 5B); assay type: in vivo; settings: 15 μg intradermally; COL1A2/lux transgenic mice; 24 hours; vs control skin
Description: FIG. 5. Decoy Sp1 oligonucleotides inhibit COL1A2 promoter activity in vitro and in vivo. A, Confluent human dermal fibroblast cultures are transfected with 5 μg of −500COL1A2/CAT reporter gene construct. After glycerol shock, increasing amounts (2, 5, 10 μg) of Sp1 (open bars) or mSp1 (hatched bars) oligonucleotides are added to the culture medium. Forty hours later, CAT activity is determined and compared to that of cultures without oligonucleotides (closed bar). Relative promoter activity (mean±SD) of three separate experiments performed in duplicate is presented. […] After a 30-hr incubation, animals are sacrified and luciferase activity is determined in the skin surrounding the injection sites using identical amounts of protein extracts (40 μg). […]
Treatment of transgenic mice. […] Luciferase activity using identical amounts of extracted proteins is determined with a commercial assay kit (Promega).
Next, decoy Sp1 experiments are performed in a transgenic mouse model in which 17 kb of the mouse COL1A2 promoter drives the expression of the luciferase gene. […] Luciferase activity is determined 24 hours later in the skin region surrounding the injections. […]

[2] = test system: COL7A1 promoter; assay: Decoy oligonucleotides on COL7A1 promoter activity; assay type: cell-based, human; settings: compared with COL1A2 promoter
[3] = test system: COL1A2 promoter; assay: Decoy oligonucleotides on COL1A2/CAT promoter activity in dermal fibroblasts (FIG. 5A); assay type: cell-based, human; settings: −3500COL1A2/CAT, 24 h; for decrease of COL1A2 promoter activity: various amounts added to culture medium
Description: FIG. 5. Decoy Sp1 oligonucleotides inhibit COL1A2 promoter activity in vitro and in vivo. A, Confluent human dermal fibroblast cultures are transfected with 5 μg of −500COL1A2/CAT reporter gene construct. After glycerol shock, increasing amounts (2, 5, 10 μg) of Sp1 (open bars) or mSp1 (hatched bars) oligonucleotides are added to the culture medium. Forty hours later, CAT activity is determined and compared to that of cultures without oligonucleotides (closed bar). Relative promoter activity (mean±SD) of three separate experiments performed in duplicate is presented. B, Four transgenic mice carrying 17 kb of mouse COL1A2 promoter linked to the luciferase gene in their genome are injected subcutaneously at distant sites (approx. 2 cm apart) with 15 μg of either Sp1 (open bar) or mSp1 (hatched bar) oligonucleotides in 25 μl of H2O. After a 30-hr incubation, animals are sacrified and luciferase activity is determined in the skin surrounding the injection sites using identical amounts of protein extracts (40 μg). A non-injected skin area is used as control (solid bar).
Transient cell transfection and CAT assays. Transient cell transfections are performed with the calcium phosphate/DNA co-precipitation procedure. CAT activity is measured using [^14C]chloramphenicol as substrate (Gorman et al, Mol Cell Biol 2: 1044-1051, 1982) followed by thin layer chromatography and quantitation with a phosphorimager.
Decoy oligonucleotides. In some in vitro experiments decoy double-stranded oligonucleotides are used in an attempt to interfere with Sp1 binding to its cognate cis-elements within the COL1A2 promoter. […] 24 h later, CAT activity, representing promoter activity, is determined.
Decoy Sp1 oligonucleotides inhibit COL1A2 promoter activity in vitro and in vivo. Since Sp1 is fundamental for high expression of several ECM genes, short oligonucleotides bearing a consensus Sp1 binding sequence are analyzed for their efficacy as decoys to decrease collagen promoter activity. […] Promoter activity is determined 24 h later. […]

[4] = test system: human dermal fibroblasts; assay type: cell-based
[5] = target: Sp1 (Homo sapiens, UniProt P08047); assay: EMSA binding of Sp1 to oligonucleotide; settings: EMSA experiments
Chain of Sp1 (P08047 whole entry): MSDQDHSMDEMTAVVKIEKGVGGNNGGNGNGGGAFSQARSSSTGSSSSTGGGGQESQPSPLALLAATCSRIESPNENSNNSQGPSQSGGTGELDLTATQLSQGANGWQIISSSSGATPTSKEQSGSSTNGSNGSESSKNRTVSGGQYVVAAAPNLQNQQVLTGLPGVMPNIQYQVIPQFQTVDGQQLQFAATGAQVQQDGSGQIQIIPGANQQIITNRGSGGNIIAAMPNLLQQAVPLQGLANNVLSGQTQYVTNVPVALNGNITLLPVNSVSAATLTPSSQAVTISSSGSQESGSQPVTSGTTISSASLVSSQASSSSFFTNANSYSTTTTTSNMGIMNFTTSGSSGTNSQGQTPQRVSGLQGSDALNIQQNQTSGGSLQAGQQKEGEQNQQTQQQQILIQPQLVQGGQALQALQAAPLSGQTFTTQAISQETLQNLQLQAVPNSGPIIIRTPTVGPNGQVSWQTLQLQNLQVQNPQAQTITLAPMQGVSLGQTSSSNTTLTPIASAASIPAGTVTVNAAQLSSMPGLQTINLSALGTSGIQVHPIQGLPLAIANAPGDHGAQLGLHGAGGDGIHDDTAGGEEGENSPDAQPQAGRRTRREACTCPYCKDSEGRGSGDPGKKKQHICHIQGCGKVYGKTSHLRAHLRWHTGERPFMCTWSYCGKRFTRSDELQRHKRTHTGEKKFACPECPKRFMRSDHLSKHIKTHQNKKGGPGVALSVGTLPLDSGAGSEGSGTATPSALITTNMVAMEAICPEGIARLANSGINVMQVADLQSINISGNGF
Description: Electrophoresis mobility shift assays (EMSA). A 22-mer consensus Sp1 oligonucleotide 5′-[…]-3′ was used as a probe to determine Sp1/DNA interactions. For supershift experiments, nuclear extracts (5 μg) are incubated for 2 h on ice with an anti-Sp1 antibody (Santa Cruz Biotechnologies, Santa Cruz, Calif.) prior to the binding reactions. Binding mixtures are separated electrophoretically on native 4% acrylamide gels, as described previously (Vindevoghel et al, 1997).
Decoy Sp1 oligonucleotides inhibit COL1A2 promoter activity in vitro and in vivo. Since Sp1 is fundamental for high expression of several ECM genes, short oligonucleotides bearing a consensus Sp1 binding sequence are analyzed for their efficacy as decoys to decrease collagen promoter activity. For this purpose. two approaches are used. First, human dermal fibroblasts are transfected with the −3500COL1A2/CAT construct, and various amounts of either wild-type or mutant Sp1 double-stranded oligonucleotides (SEQ. ID. NO:2 and SEQ. ID. NO: 3. respectively) are added to the culture medium. Promoter activity is determined 24 h later. […] Maximal inhibition (55%) is observed with addition of […] of Sp1 oligonucleotide.

Row | Substance | reduction of COL1A2 promoter activity (luciferase activity in skin) [1] | inhibition of COL7A1 promoter [2] | Maximal inhibition of COL1A2 promoter activity ([3]; 15 μg/plate) | decrease of COL1A2 promoter activity [3] | cellular toxicity [4] | binding of Sp1 to the oligonucleotide's Sp1 binding site [5]
1 | Sp1 oligonucleotide: 22-mer consensus Sp1 double-stranded decoy oligonucleotide, 5′-ATTCGATCGGGGCGGGGCGAGC-3′ (double-stranded, further chemistry not given here) | about 70% | equally inhibited | 55% | efficiently decreases COL1A2 promoter activity in a dose-dependent manner | No cellular toxicity | –
2 | mSp1: mutant double-stranded oligonucleotide used as a control, 5′-ATTCGATCGTAGCGATGCGAGC-3′ (double-stranded, further chemistry not given here) [reference compound] | no effect | – | – | not | No cellular toxicity | incapable of binding Sp1

Source: US20020137715A1, “Blocking Sp1 transcription factor broadly inhibits extracellular matrix gene expression in vitro and in vivo: implications for the treatment of tissue fibrosis” (priority 2001, published 2002)
